# Test results published in ChEMBL document CHEMBL1201862, “PubChem BioAssay data set” (2004).
#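 How tested: cells in 96-well plates exposed to compound for 48 hours at five concentrations. At the GI50, growth is halved.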 The source made the active and inactive calls. Rule as the data show it: active = GI50 up to about 1.1 µM and inactive = higher.
# Assays:
# Assay in all cases: inhibition of tumour cell growth, NCI panel, 48 h
# [1] = system: PC-3
# [2] = system: UACC-257
# [3] = system: SK-MEL-28
# [4] = system: NCI-H226
# [5] = system: KM12
# [6] = system: LOX IMVI
# [7] = system: SF-539
# [8] = system: HOP-62
# [9] = system: HCT-116
# [10] = system: ACHN
# [11] = system: T47D
# [12] = system: MDA-MB-435
# [13] = system: NCI-H460
# [14] = system: CAKI-1
# [15] = system: COLO 205
# [16] = system: NCI/ADR-RES
# [17] = system: HCC 2998
# [18] = system: SK-MEL-2
# [19] = system: MOLT-4
# [20] = system: BT-549
# [21] = system: U-251
# [22] = system: DU-145
# [23] = system: UO-31
# [24] = system: OVCAR-3
# [25] = system: OVCAR-4
# [26] = system: HCT-15
# [27] = system: EKVX
# [28] = system: TK-10
# [29] = system: IGROV-1
# [30] = system: Malme-3M
# [31] = system: MCF7
# [32] = system: 786-0
# [33] = system: HOP-92
# [34] = system: SR
# [35] = system: SK-MEL-5
# [36] = system: NCI-H23
# [37] = system: NCI-H522
# [38] = system: SF-268
# [39] = system: K562
# [40] = system: A498
# [41] = system: SF-295
# [42] = system: OVCAR-5
# [43] = system: HT-29
# [44] = system: MDA-MB-231
# [45] = system: RXF 393
# [46] = system: RPMI-8226
# [47] = system: HL-60
# [48] = system: CCRF-CEM
# [49] = system: SK-OV-3
# [50] = system: SNB-75
# [51] = system: UACC-62
# [52] = system: SW-620
# [53] = system: SNB-19
# [54] = system: OVCAR-8
# [55] = system: Hs-578T
# [56] = system: M14
# [57] = system: A549
# [58] = system: SN12C
smiles,measurement,setting,value
O=C1CS/C(=N/N=C/c2cn(Cc3ccc(Cl)cc3Cl)c3ccccc23)N1,GI50,[1],19.6 µM (inactive)
same,GI50,[2],67.8 µM (inactive)
same,GI50,[3],50.4 µM (inactive)
same,GI50,[4],> 100 µM (inactive)
same,GI50,[5],54.3 µM (inactive)
same,GI50,[6],25.2 µM (inactive)
same,GI50,[7],18.2 µM (inactive)
same,GI50,[8],27.6 µM (inactive)
same,GI50,[9],44.6 µM (inactive)
same,GI50,[10],53.7 µM (inactive)
same,GI50,[11],23.1 µM (inactive)
same,GI50,[12],25 µM (inactive)
same,GI50,[13],56.4 µM (inactive)
same,GI50,[14],39.1 µM (inactive)
same,GI50,[15],> 100 µM (inactive)
same,GI50,[16],24.5 µM (inactive)
same,GI50,[17],32.2 µM (inactive)
same,GI50,[18],23.6 µM (inactive)
same,GI50,[19],38.2 µM (inactive)
same,GI50,[20],> 100 µM (inactive)
same,GI50,[21],17.3 µM (inactive)
same,GI50,[22],53.6 µM (inactive)
same,GI50,[23],31.8 µM (inactive)
same,GI50,[24],59 µM (inactive)
same,GI50,[25],21.8 µM (inactive)
same,GI50,[26],37.3 µM
same,GI50,[27],20.9 µM (inactive)
same,GI50,[28],> 100 µM (inactive)
same,GI50,[29],73.3 µM (inactive)
same,GI50,[30],76.4 µM (inactive)
same,GI50,[31],18.5 µM (inactive)
same,GI50,[32],22.4 µM (inactive)
same,GI50,[33],28.2 µM (inactive)
same,GI50,[34],14.1 µM (inactive)
same,GI50,[35],35.6 µM (inactive)
same,GI50,[36],58.3 µM (inactive)
same,GI50,[37],44.9 µM (inactive)
same,GI50,[38],30.8 µM (inactive)
same,GI50,[39],38.8 µM (inactive)
same,GI50,[40],19.9 µM (inactive)
same,GI50,[41],64.4 µM (inactive)
same,GI50,[42],> 100 µM (inactive)
same,GI50,[43],50.1 µM (inactive)
same,GI50,[44],17 µM (inactive)
same,GI50,[45],24.9 µM (inactive)
same,GI50,[46],52.1 µM (inactive)
same,GI50,[47],> 100 µM (inactive)
same,GI50,[48],15.8 µM (inactive)
same,GI50,[49],> 100 µM (inactive)
same,GI50,[50],19.1 µM (inactive)
same,GI50,[51],91.2 µM (inactive)
same,GI50,[52],27.5 µM (inactive)
same,GI50,[53],35.9 µM (inactive)
same,GI50,[54],10.8 µM (inactive)
same,GI50,[55],25.8 µM (inactive)
same,GI50,[56],36.5 µM (inactive)
same,GI50,[57],63 µM (inactive)
same,GI50,[58],19.5 µM (inactive)
COC1C=COC2(C)Oc3c(C)c(O)c4c(O)c(c(C5SCCS5)c(O)c4c3C2=O)NC(=O)C(C)=C/C=C\C(C)C2OC(C)(C)OC(C2C)C(C)C(OC(C)=O)C1C (stereo not given),GI50,[1],5.31 µM (inactive)
same,GI50,[2],2.74 µM (inactive)
same,GI50,[3],23.5 µM (inactive)
same,GI50,[4],6.71 µM (inactive)
same,GI50,[5],6.04 µM (inactive)
same,GI50,[6],5.31 µM (inactive)
same,GI50,[7],12.9 µM (inactive)
same,GI50,[8],12.2 µM (inactive)
same,GI50,[9],5.05 µM (inactive)
same,GI50,[10],3.15 µM (inactive)
same,GI50,[11],70.6 µM (inactive)
same,GI50,[12],4.79 µM (inactive)
same,GI50,[13],4.21 µM (inactive)
same,GI50,[14],6.12 µM (inactive)
same,GI50,[15],3.38 µM (inactive)
same,GI50,[16],11.6 µM (inactive)
same,GI50,[17],5.15 µM (inactive)
same,GI50,[18],5.79 µM (inactive)
same,GI50,[19],3.83 µM (inactive)
same,GI50,[20],3.73 µM (inactive)
same,GI50,[21],4.78 µM (inactive)
same,GI50,[22],8.93 µM (inactive)
same,GI50,[23],7.41 µM (inactive)
same,GI50,[24],4.78 µM (inactive)
same,GI50,[25],6.07 µM (inactive)
same,GI50,[26],5.6 µM
same,GI50,[28],6.41 µM (inactive)
same,GI50,[29],6.56 µM (inactive)
same,GI50,[30],11.5 µM (inactive)
same,GI50,[31],2.92 µM (inactive)
same,GI50,[32],10.1 µM (inactive)
same,GI50,[33],5.55 µM (inactive)
same,GI50,[35],3.77 µM (inactive)
same,GI50,[36],6.44 µM (inactive)
same,GI50,[37],5.02 µM (inactive)
same,GI50,[38],7.33 µM (inactive)
same,GI50,[39],4.09 µM (inactive)
same,GI50,[40],12.3 µM (inactive)
same,GI50,[41],5.32 µM (inactive)
same,GI50,[42],24.3 µM (inactive)
same,GI50,[44],13.6 µM (inactive)
same,GI50,[45],7.21 µM (inactive)
same,GI50,[46],4.57 µM (inactive)
same,GI50,[47],5.53 µM (inactive)
same,GI50,[48],5.86 µM (inactive)
same,GI50,[49],17.1 µM (inactive)
same,GI50,[50],42.3 µM (inactive)
same,GI50,[51],4.02 µM (inactive)
same,GI50,[52],7 µM (inactive)
same,GI50,[53],16.4 µM (inactive)
same,GI50,[54],5.15 µM (inactive)
same,GI50,[55],15.8 µM (inactive)
same,GI50,[56],9.31 µM (inactive)
same,GI50,[57],3.66 µM (inactive)
same,GI50,[58],4.3 µM (inactive)
CC1=NN(c2nc(N)nc(CF)n2)C(C)(C)C1,GI50,[1],> 100 µM (inactive)
same,GI50,[2],> 100 µM (inactive)
same,GI50,[3],> 100 µM (inactive)
same,GI50,[4],> 100 µM (inactive)
same,GI50,[5],> 100 µM (inactive)
same,GI50,[6],> 100 µM (inactive)
same,GI50,[7],> 100 µM (inactive)
same,GI50,[8],> 100 µM (inactive)
same,GI50,[9],> 100 µM (inactive)
same,GI50,[10],> 100 µM (inactive)
same,GI50,[11],> 100 µM (inactive)
same,GI50,[12],> 100 µM (inactive)
same,GI50,[13],> 100 µM (inactive)
same,GI50,[14],> 100 µM (inactive)
same,GI50,[15],> 100 µM (inactive)
same,GI50,[16],> 100 µM (inactive)
same,GI50,[17],> 100 µM (inactive)
same,GI50,[18],> 100 µM (inactive)
same,GI50,[19],> 100 µM (inactive)
same,GI50,[20],> 100 µM (inactive)
same,GI50,[21],> 100 µM (inactive)
same,GI50,[22],> 100 µM (inactive)
same,GI50,[23],> 100 µM (inactive)
same,GI50,[25],> 100 µM (inactive)
same,GI50,[26],> 100 µM
same,GI50,[27],> 100 µM (inactive)
same,GI50,[28],> 100 µM (inactive)
same,GI50,[29],> 100 µM (inactive)
same,GI50,[31],> 100 µM (inactive)
same,GI50,[32],> 100 µM (inactive)
same,GI50,[33],> 100 µM (inactive)
same,GI50,[34],> 100 µM (inactive)
same,GI50,[35],> 100 µM (inactive)
same,GI50,[36],> 100 µM (inactive)
same,GI50,[38],> 100 µM (inactive)
same,GI50,[39],49.3 µM (inactive)
same,GI50,[40],> 100 µM (inactive)
same,GI50,[41],> 100 µM (inactive)
same,GI50,[43],> 100 µM (inactive)
same,GI50,[44],> 100 µM (inactive)
same,GI50,[45],> 100 µM (inactive)
same,GI50,[46],> 100 µM (inactive)
same,GI50,[47],> 100 µM (inactive)
same,GI50,[48],> 100 µM (inactive)
same,GI50,[49],> 100 µM (inactive)
same,GI50,[50],> 100 µM (inactive)
same,GI50,[51],> 100 µM (inactive)
same,GI50,[52],> 100 µM (inactive)
same,GI50,[53],> 100 µM (inactive)
same,GI50,[54],> 100 µM (inactive)
same,GI50,[55],> 100 µM (inactive)
same,GI50,[56],> 100 µM (inactive)
